Data taken from article PMC13379085 (PLOS Neglected Tropical Diseases, 2026).

What was measured:
[1] = tested on: Extracellular L. donovani promastigotes; experiment: Resazurin viability assay of extracellular L. donovani promastigotes; type: cell-based, Leishmania donovani; conditions: for 53 strain not specified
Protocol: The effect of compounds on extracellular promastigotes was evaluated using a resazurin-based assay as described previously. In short, late log phase Leishmania promastigotes were seeded in a 96 well plate at 1 x 10^5 parasites per well and treated with drugs (0.5 – 200 µM) for 72 hours at 25°C. Ten microliters of Resazurin (0.02% w/v) were added to the treated parasites to achieve a final concentration of 0.002% w/v and incubated for 24 hours. Viability of the promastigotes was assessed by fluorescence (excitation 544 nm, emission 590 nm, SpectraMax M2, Molecular Devices).

lysozyme = biological target: T1, lysozyme (Homo sapiens, UniProt P61626); experiment: Affinity capture proteomics with 197-bead in Leishmania infected macrophage lysate; type: binding; parameters: endogenous in cells; host or cells: PMA-differentiated THP-1 macrophages infected with L. mexicana (lysate); conditions: 197-bead vs control bead
T1 sequence (P61626 19-148): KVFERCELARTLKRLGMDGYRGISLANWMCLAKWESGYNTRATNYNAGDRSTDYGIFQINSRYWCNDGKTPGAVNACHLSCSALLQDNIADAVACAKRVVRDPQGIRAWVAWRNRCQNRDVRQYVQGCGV
Protocol: To generate cell lysate, ten million THP-1 cells were plated overnight in a 10 cm dish, then differentiated with 150 nM phorbol 12-myristate 13-acetate (PMA) for 72 hours. The resulting macrophages were infected with L. mexicana promastigotes at a multiplicity of infection of 1:10 and incubated for 18 hours. After infection, cells were washed three times with PBS to remove extracellular promastigotes. Cells were then collected by scraping and pelleted with centrifugation. The cell pellet was resuspended in cell buffer (50mM Tris-HCl, 150mM NaCl, 2mM EDTA, 0.5% triton-x-100) and subjected to five freeze-thaw cycles. Samples were centrifuged 14,000g x 10 minutes to remove cellular debris. Protein concentration of supernatant was determined by BCA assay and cell lysate was stored at -80 ° C until further use.
Functionalized agarose beads were made as follows. NHS activated agarose beads were washed three times to remove acetone and resuspended in PBS to create a slurry. 494 (197 with ligation chemical handle) was prepared in 0.3 mL at 25mM in DMSO and 1.7 mL PBS was added to 1 mL of agarose slurry for a final volume of 3 mL at a concentration of 2.5mM (10% v/v DMSO). […]
The peptide samples were resuspended in 15 μL of 5% ACN/0.1% formic acid and analyzed by LC-MS/MS using an Easy nLC 1200 coupled to a QExactive HF mass spectrometer (Thermo Scientific). […]

[2] = tested on: Intracellular L. donovani amastigotes; experiment: Luminescence-based assay of intracellular L. donovani burden in THP-1 macrophages; type: cell-based, Leishmania donovani
Protocol: Luminescent strains, L. donovani LV82 expressing firefly luciferase (a kind gift from Dr. Abhay Satoskar, Ohio State University) and L. mexicana (NR-51210, ATCC) expressing renilla luciferase were used to evaluate the effect of the compounds in intracellular and extracellular conditions. Wild-type L. donovani LV82 (ATCC) were used for Giemsa staining based experiments. All parasites were cultured at 25°C and 5% CO2 in M199 media (Corning) supplemented with 10% FBS, 1% Penicillin/Streptomycin, and Hemin (0.01 mg/mL), and used in experiments up to passage 15.
THP-1 cells were seeded in a 96 well plate (25,000 cells/well) overnight then differentiated with 150 nM phorbol 12-myristate 13-acetate (PMA) over 72 hours (S1 Fig). […] Briefly, promastigotes of a known cell density were resuspended in RPMI media (with 10% FBS, 1% P/S and 0.05 mM β-mercaptoethanol) and incubated with adhered THP-1 cells over 18 hours. After infection, cells were washed three times with fresh media to remove extracellular promastigotes.
Infected macrophages were then treated with compounds solubilized in DMSO ranging from 0.1-10 µM in concentrations. After 72 hours of treatment, the viability of the amastigotes within macrophages was determined using Promega firefly luminescence assay (Cat E1500) or Pierce Renilla luciferase assay (Cat 16166) for L. donovani and L. mexicana strains, respectively. Briefly, media was removed, and cells were lysed with the assay lysis buffer. The luciferase substrate was then incubated with the lysed cells for 10 min at room temperature and luminescence of live Leishmania was measured in a white opaque 96 well plate using a Biotek plate reader.

O=C(CNCc1cccc(F)c1)Nc1ccc(-n2cc(C(F)(F)F)nc2-c2ccc(-c3ccc(C(F)(F)F)cc3)cc2)cc1 [Compound 197]
direct effects on extracellular promastigote viability [1]: some direct reduction
affinity capture abundance of lysozyme, Log2 fold change (lysozyme): 6.57
Selectivity 24h LC50/ Lum IC50 ([2]; host-directed effect vs cytotoxicity in THP-1): >20.6
intracellular activity (primary screen) ([2]; imidazole series): retaining potent intracellular activity
